For 16 molecules, EC50 and IC90 results are on record in patent US20240228488A1 (TAKEDA PHARMACEUTICAL COMPANY LIMITED, priority 2021, published 2024).

pEC50: −log10 of the molar value.

For experiment [1], the target named is human activated kallikrein enzyme (Homo sapiens, UniProt P03952). Put plainly: Plasma kallikrein inhibition, fluorogenic PFR-AMC substrate, 500 pM activated kallikrein format. Format: biochemical. As to conditions: 500 pM activated kallikrein, 300 uM PFR-AMC, 30 min preincubation, 10 min reaction; read-out: Primary Dose Response Assay: Average EC50. An outline of the steps:
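Enzyme at 500 pM preincubated 30 min RT with inhibitors in 20 mM Tris pH 7.5, 1 mM EDTA, 150 mM NaCl, 0.1% PEG-400, 0.1% Triton X-100. Reaction started with 300 uM PFR-AMC, run 10 min RT; fluorescence read at 460 nm emission, 380 nm excitation. EC50 reported in ranges.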

A further experiment concerns the target T1, plasma kallikrein (Homo sapiens, UniProt P03952).
T1 construct: from tissue
Nature of the experiment: Neat human plasma assay, FXIIa contact pathway-activated, PFR-AMC substrate. Format: biochemical. As to conditions: citrated human plasma 78% final, 10 nM human FXIIa, 100 μM PFR-AMC; read-out: Human Plasma Assay: IC90. Put shortly:
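Citrated human plasma (78% final) with compound, contact-activated by 10 nM human FXIIa in pKal buffer pH 7.5, with 100 μM PFR-AMC. Fluorescence (360/480 nm) followed 5 min at room temperature; rates versus concentration fitted by 4-parameter equation for IC50/IC90.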

human activated kallikrein enzyme, sequence (P03952 391-638 limits assumed): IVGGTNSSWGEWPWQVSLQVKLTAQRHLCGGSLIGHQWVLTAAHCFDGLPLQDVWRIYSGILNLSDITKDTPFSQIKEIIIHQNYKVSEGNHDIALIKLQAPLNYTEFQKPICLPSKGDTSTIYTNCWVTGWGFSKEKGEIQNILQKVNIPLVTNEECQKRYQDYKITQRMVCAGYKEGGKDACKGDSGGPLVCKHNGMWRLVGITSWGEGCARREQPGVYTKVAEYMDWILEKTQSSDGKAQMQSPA
human activated kallikrein enzyme, sequence (P03952 20-390 partner limits assumed): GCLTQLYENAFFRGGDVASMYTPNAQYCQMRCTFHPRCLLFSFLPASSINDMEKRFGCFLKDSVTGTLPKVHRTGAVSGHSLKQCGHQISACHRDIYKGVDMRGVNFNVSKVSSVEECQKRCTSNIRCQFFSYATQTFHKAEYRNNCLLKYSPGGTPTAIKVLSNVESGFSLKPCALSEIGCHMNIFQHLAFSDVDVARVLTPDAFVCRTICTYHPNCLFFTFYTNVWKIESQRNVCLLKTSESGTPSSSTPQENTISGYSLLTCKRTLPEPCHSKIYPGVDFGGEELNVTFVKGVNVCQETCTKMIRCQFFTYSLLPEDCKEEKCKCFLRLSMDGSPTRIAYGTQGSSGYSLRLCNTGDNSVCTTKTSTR
T1 sequence (P03952 391-638 limits assumed): as the sequence (P03952 391-638 limits assumed) above
T1 sequence (P03952 20-390 partner limits assumed): as the sequence (P03952 20-390 partner limits assumed) above

Turning to `Cc1cc(N2CC(=O)N(C)C2=O)c2nc([C@@H](C)Nc3cc(NC(=O)[C@H]4C[C@@H]4c4nccc(C)n4)ncn3)cn2c1` [Example 423, (1S,2S)-N-(6-(((R)-1-(6-methyl-8-(3-methyl-2,4-dioxoimidazolidin-1-yl)imidazo[1,2-a]pyridin-2-yl)ethyl)amino)pyrimidin-4-yl)-2-(4-methylpyrimidin-2-yl)cyclopropane-1-carboxamide], the pEC50 (commonly the EC50 on a negative log10 scale, so that one unit is a factor of ten) in experiment [1] is over 9.00. Moreover, the IC90 – broadly, the concentration at which the effect reaches the 90% level – at plasma kallikrein is under 400 nM.

As to `Nc1ccc(Cl)cc1[C@H]1C[C@@H]1C(=O)Nc1cc(NCc2cn3cc(C4CC4)ccc3n2)ccn1` (racemic) [Example I-222, rac-(1S*,2S*)-2-(2-amino-5-chlorophenyl)-N-(4-(((6-cyclopropylimidazo[1,2-a]pyridin-2-yl)methyl)amino)pyridin-2-yl)cyclopropane-1-carboxamide], in experiment [1], the pEC50 is 8.00 to 9.00. Moreover, the IC90 at plasma kallikrein is over 48000 nM.

On to `O=C(Nc1cc(NCc2cn3cc(C4CC4)ccc3n2)cc(O)n1)[C@H]1C[C@@H]1c1cccc(Cl)c1` [Example 611, (1S,2S)-2-(3-chlorophenyl)-N-(4-(((6-cyclopropylimidazo[1,2-a]pyridin-2-yl)methyl)amino)-6-hydroxypyridin-2-yl)cyclopropane-1-carboxamide], for which the pEC50 in experiment [1] was over 9.00. Moreover, the IC90 at plasma kallikrein lay within 1500 to 10000 nM.

On to `O=C(Nc1cc(NCc2cn3cc(C4CC4)cc(N4CCN5CCC4C5)c3n2)ccn1)[C@H]1C[C@@H]1c1cccc(Cl)c1` (stereo partly drawn) [Example I-23, (1S,2S)-N-(4-(((8-(1,4-diazabicyclo[3.2.1]octan-4-yl)-6-cyclopropylimidazo[1,2-a]pyridin-2-yl)methyl)amino)pyridin-2-yl)-2-(3-chlorophenyl)cyclopropane-1-carboxamide], for which the negative logarithm of the EC50 (pEC50) in experiment [1] is over 9.00. Also, the IC90 at plasma kallikrein lay within 400 to 1500 nM.

Take `O=C(Nc1cc(NCc2cn3cc(C4CC4)ccc3n2)cc(CCN2CCOCC2)n1)[C@H]1C[C@@H]1c1cccc(Cl)c1` [Example 341, (1S,2S)-2-(3-chlorophenyl)-N-(4-(((6-cyclopropylimidazo[1,2-a]pyridin-2-yl)methyl)amino)-6-(2-morpholinoethyl)pyridin-2-yl)cyclopropane-1-carboxamide]: the pEC50 in experiment [1] was 8.00 to 9.00. In addition, the IC90 at plasma kallikrein lay in the range of 1500 to 10000 nM.

`Cc1ccnc([C@H]2C[C@@H]2C(=O)Nc2cc(OCc3cn4cc(C5CC5)cc(N5CC(=O)N(C)C5=O)c4n3)nc(C)n2)n1` [Example 555, (1S,2S)-N-(6-((6-cyclopropyl-8-(3-methyl-2,4-dioxoimidazolidin-1-yl)imidazo[1,2-a]pyridin-2-yl)methoxy)-2-methylpyrimidin-4-yl)-2-(4-methylpyrimidin-2-yl)cyclopropane-1-carboxamide]: the pEC50 in experiment [1] is over 9.00. Moreover, on plasma kallikrein, the IC90 lay in the range of 400 to 1500 nM.

For `O=C1CN(c2cc(C3CC3)cn3cc(CNc4cc(NC(=O)[C@H]5C[C@@H]5c5cccc(Cl)c5)ncn4)nc23)C(=O)N1` [Example 396, (1S,2S)-2-(3-chlorophenyl)-N-(6-(((6-cyclopropyl-8-(2,4-dioxoimidazolidin-1-yl)imidazo[1,2-a]pyridin-2-yl)methyl)amino)pyrimidin-4-yl)cyclopropane-1-carboxamide], in experiment [1], the pEC50 was over 9.00. Further, the concentration for an effect of 90% (IC90) at plasma kallikrein lay within 400 to 1500 nM.

As for `COc1ccnc([C@H]2C[C@@H]2C(=O)Nc2cc(N[C@H](C)c3cn4cc(C5CC5)cc(N5CC(=O)N(C)C5=O)c4n3)ncn2)n1` (relative stereo) [Example 529, rac-(1S*,2S*)-N-(6-(((R)-1-(6-cyclopropyl-8-(3-methyl-2,4-dioxoimidazolidin-1-yl)imidazo[1,2-a]pyridin-2-yl)ethyl)amino)pyrimidin-4-yl)-2-(4-methoxypyrimidin-2-yl)cyclopropane-1-carboxamide], the pEC50 in experiment [1] is over 9.00. Also, the IC90 at plasma kallikrein lay within 400 to 1500 nM.

Turning to `CC(C)c1ccc2nc(CNc3ccnc(NC(=O)[C@H]4C[C@@H]4c4cccc(Cl)c4)c3)cn2c1` [Example 123, (1S,2S)-2-(3-chlorophenyl)-N-(4-(((6-isopropylimidazo[1,2-a]pyridin-2-yl)methyl)amino)pyridin-2-yl)cyclopropane-1-carboxamide], the pEC50 in experiment [1] is over 9.00. Moreover, the IC90 on plasma kallikrein was in the range of 10000 to 48000 nM.

As to `O=C(Nc1cc(NCc2cn3cc(C4CC4)ccc3n2)cnn1)[C@H]1C[C@@H]1c1cccc(Cl)c1` (racemic) [Example 101, rac-(1S*,2S*)-2-(3-chlorophenyl)-N-(5-(((6-cyclopropylimidazo[1,2-a]pyridin-2-yl)methyl)amino)pyridazin-3-yl)cyclopropane-1-carboxamide], the negative logarithm of the EC50 (pEC50) in experiment [1] was 8.00 to 9.00. In addition, at plasma kallikrein, the concentration for an effect of 90% (IC90) was in the range of 10000 to 48000 nM.

Consider `O=C(Nc1cc(NCc2cn3cc(C4CC4)cc(C4(F)CNC4)c3n2)ccn1)[C@H]1C[C@@H]1c1cccc(Cl)c1` [Example 133, (1S,2S)-2-(3-chlorophenyl)-N-(4-(((6-cyclopropyl-8-(3-fluoroazetidin-3-yl)imidazo[1,2-a]pyridin-2-yl)methyl)amino)pyridin-2-yl)cyclopropane-1-carboxamide], for which the pEC50 in experiment [1] is over 9.00. The IC90 on plasma kallikrein fell in the range of 400 to 1500 nM.

Turning to `O=C(Nc1cc(NCc2cn3cc(C4CC4)cc(N4CC5CC5C4=O)c3n2)ccn1)[C@H]1C[C@@H]1c1cccc(Cl)c1` (stereo partly drawn) [Example 95, (S,2S)-2-(3-chlorophenyl)-N-(4-(((6-cyclopropyl-8-(2-oxo-3-azabicyclo[3.1.0]hexan-3-yl)imidazo[1,2-a]pyridin-2-yl)methyl)amino)pyridin-2-yl)cyclopropane-1-carboxamide], in experiment [1], the pEC50 is over 9.00. Moreover, at plasma kallikrein, the IC90 was in the range of 1500 to 10000 nM.

On to `COc1nc(NC(=O)[C@H]2C[C@@H]2c2nccc(C)n2)cc(OCc2cn3cc(C4CC4)cc(N4CC(=O)N(C)C4=O)c3n2)n1` [Example 556, (1S,2S)-N-(6-((6-cyclopropyl-8-(3-methyl-2,4-dioxoimidazolidin-1-yl)imidazo[1,2-a]pyridin-2-yl)methoxy)-2-methoxypyrimidin-4-yl)-2-(4-methylpyrimidin-2-yl)cyclopropane-1-carboxamide], for which, in experiment [1], the pEC50 is over 9.00. The IC90 at plasma kallikrein was 400 to 1500 nM.

Take `O=C(Nc1cc(NCc2cn3cc(C4CC4)ccc3n2)ncn1)[C@H]1C[C@@H]1c1cc(Cl)ccn1` (single isomer, unassigned) [Example I-267, rac-(1S*,2S*)-2-(4-chloropyridin-2-yl)-N-(6-(((6-cyclopropylimidazo[1,2-a]pyridin-2-yl)methyl)amino)pyrimidin-4-yl)cyclopropane-1-carboxamide]: the pEC50 in experiment [1] is 8.00 to 9.00. For the same molecule, the IC90 on plasma kallikrein fell in the range of 10000 to 48000 nM.

In the case of `O=C(Nc1cc(N(CCO)Cc2cn3cc(C4CC4)ccc3n2)ccn1)[C@H]1C[C@@H]1c1cc(Cl)ccn1` [Example 137, (1S,2S)-2-(4-chloropyridin-2-yl)-N-(4-(((6-cyclopropylimidazo[1,2-a]pyridin-2-yl)methyl)(2-hydroxyethyl)amino)pyridin-2-yl)cyclopropane-1-carboxamide], in experiment [1], the pEC50 was over 9.00. For the same molecule, the IC90 at plasma kallikrein was in the range of 1500 to 10000 nM.

Turning to `CNCCc1cc(C2CC2)cn2cc(CNc3ccnc(NC(=O)[C@H]4C[C@@H]4c4cccc(Cl)c4)c3)nc12` [Example 607, (1S,2S)-2-(3-chlorophenyl)-N-(4-(((6-cyclopropyl-8-(2-(methylamino)ethyl)imidazo[1,2-a]pyridin-2-yl)methyl)amino)pyridin-2-yl)cyclopropane-1-carboxamide], the pEC50 in experiment [1] was over 9.00. The IC90 at plasma kallikrein is under 400 nM.
